Measurements as given in ChEMBL document CHEMBL3822432, “Antibacterial and anticancer activity of a series of novel peptides incorporating cyclic tetra-substituted C(α) amino acids” (Bioorg Med Chem, 2016).
In brackets after ≈: the same amount, converted by molar mass. Non-standard residues stand in square brackets, D forms with d. Residues, ends and D or L forms follow the SMILES beside them. ξ: configuration not given here. Ac6c = NC1(C(=O)O)CCCCC1; Ac5c = NC1(C(=O)O)CCCC1; ξOrn = NCCCC(N)C(=O)O

What was measured:
[1] = Antibacterial activity against Salmonella enterica LT2 Typhimurium ATCC 15277 by two fold serial dilution method; type: functional
[2] = tested on: Mycobacterium tuberculosis; test: Antibacterial activity against Mycobacterium tuberculosis H37Ra ATCC 2517 by two fold serial dilution method; type: functional
RL = test: Antiproliferative activity against human RL cells after 72 hrs by Celltiter-Glo luminescent cell viability assay; type: functional, cell-based
Staphylococcus aureus [3] = test: Antibacterial activity against methicillin-resistant Staphylococcus aureus USA 300 NRS 384 by two fold serial dilution method; type: functional
CFPAC-1 = test: Antiproliferative activity against human CFPAC-1 cells after 72 hrs by Celltiter-Glo luminescent cell viability assay; type: functional, cell-based; conditions: CFPAC-1, 72 h
NCI-H69 = test: Antiproliferative activity against human NCI-H69 cells after 72 hrs by Celltiter-Glo luminescent cell viability assay; type: functional, cell-based; conditions: NCI-H69, 72 h
A549 = test: Antiproliferative activity against human A549 cells after 72 hrs by Celltiter-Glo luminescent cell viability assay; type: functional, cell-based; conditions: A549, 72 h
Acinetobacter baumannii = test: Antibacterial activity against Acinetobacter baumannii B5W71 ATCC 15149 by two fold serial dilution method; type: functional
[4] = Antiproliferative activity against human MIAPaCa2 cells after 72 hrs by Celltiter-Glo luminescent cell viability assay; type: functional, cell-based; conditions: MIA PaCa-2, 72 h
Enterococcus faecalis = test: Antibacterial activity against Enterococcus faecalis Portland ATCC 29212 by two fold serial dilution method; type: functional; conditions: ATCC 29212 Portland
Streptococcus pneumoniae = test: Antibacterial activity against Streptococcus pneumoniae 262 ATCC 49619 by two fold serial dilution method; type: functional
[5] = Antibacterial activity against carbapenem-resistant Klebsiella pneumoniae K6 ATCC 700603 by two fold serial dilution method; type: functional, Klebsiella pneumoniae 700603
[6] = Antibacterial activity against Clostridium difficile VIP 10463 ATCC 43255 by two fold serial dilution method; type: functional, Clostridium difficile ATCC 43255; conditions: Clostridioides difficile
[7] = Antiproliferative activity against human COLO205 cells after 72 hrs by Celltiter-Glo luminescent cell viability assay; type: functional, cell-based; conditions: COLO 205, 72 h
Klebsiella aerogenes = test: Antibacterial activity against carbapenem-resistant Enterobacter aerogenes NCDC819-56 ATCC 13048 by two fold serial dilution method; type: functional
MCF7 = test: Antiproliferative activity against human MCF7 cells after 72 hrs by Celltiter-Glo luminescent cell viability assay; type: functional, cell-based; conditions: MCF7, 72 h
Neisseria gonorrhoeae = test: Antibacterial activity against Neisseria gonorrhoeae F-18 ATCC 49226 by two fold serial dilution method; type: functional
[8] = Antibacterial activity against Francisella tularensis SCHU S4 NR-643 by two fold serial dilution method; type: functional
[9] = Antiproliferative activity against human DLD1 cells after 72 hrs by Celltiter-Glo luminescent cell viability assay; type: functional, cell-based; conditions: DLD-1, 72 h
[10] = Antiproliferative activity against human PC3 cells after 72 hrs by Celltiter-Glo luminescent cell viability assay; type: functional, cell-based; conditions: PC-3, 72 h
A498 = test: Antiproliferative activity against human A498 cells after 72 hrs by Celltiter-Glo luminescent cell viability assay; type: functional, cell-based; conditions: A498, 72 h
[11] = tested on: Burkholderia pseudomallei; test: Antibacterial activity against Burkholderia pseudomallei AHS 1 NCTC 8016 by two fold serial dilution method; type: functional
[12] = Antibacterial activity against Yersinia pestis CO92 NR641 by two fold serial dilution method; type: functional
Staphylococcus aureus [13] = test: Antibacterial activity against Staphylococcus aureus Seattle 1945 ATCC 25923 by two fold serial dilution method; type: functional
[14] = Antiproliferative activity against human UACC62 cells after 72 hrs by Celltiter-Glo luminescent cell viability assay; type: functional, cell-based; conditions: UACC-62, 72 h
[15] = Antibacterial activity against Bacillus anthracis Ames NR-3838 by two fold serial dilution method; type: functional, Bacillus anthracis str. Ames
[16] = Antiproliferative activity against human IGROV1 cells after 72 hrs by Celltiter-Glo luminescent cell viability assay; type: functional, cell-based; conditions: IGROV-1, 72 h
Pseudomonas aeruginosa = test: Antibacterial activity against Pseudomonas aeruginosa Boston 41501 ATCC 27853 by two fold serial dilution method; type: functional

SMILES | MIC [1] | MIC [2] | IC50 (RL) | MIC (Staphylococcus aureus [3]) | IC50 (CFPAC-1) | IC50 (NCI-H69) | IC50 (A549) | MIC (Acinetobacter baumannii) | IC50 [4] | MIC (Enterococcus faecalis) | MIC (Streptococcus pneumoniae) | MIC [5] | MIC [6] | IC50 [7] | MIC (Klebsiella aerogenes) | IC50 (MCF7) | MIC (Neisseria gonorrhoeae) | MIC [8] | IC50 [9] | IC50 [10] | also measured
CC(=O)NCC(=O)N[C@@H](Cc1ccccc1)C(=O)NC1(C(=O)NCC(=O)NC2(C(=O)N[C@@H](CCCCN)C(=O)NC3(C(=O)NCC(=O)NC4(C(=O)N[C@@H](Cc5ccccc5)C(=O)NC5(C(=O)NCC(=O)NC6(C(=O)NCC(=O)N[C@@H](CCCCN)C(=O)NC7(C(=O)N[C@@H](CCCCN)C(=O)N[C@@H](CCCCN)C(=O)N[C@@H](CCCCN)C(=O)N[C@@H](CCCCN)C(N)=O)CCCC7)CCCC6)CCCC5)CCCC4)CCCC3)CCCC2)CCCC1 (Ac-GF[Ac5c]G[Ac5c]K[Ac5c]G[Ac5c]F[Ac5c]G[Ac5c]GK[Ac5c]KKKK-NH2) | 5.71 µM (≈ 12.5 µg/mL) | 11.4 µM (≈ 25 µg/mL) | > 7.5 µM | > 46 µM | > 7.5 µM | > 7.5 µM | > 7.5 µM | 2.86 µM (≈ 6.25 µg/mL) | > 7.5 µM | > 46 µM | > 46 µM | > 46 µM | 1.43 µM (≈ 3.13 µg/mL) | > 7.5 µM | > 46 µM | > 7.5 µM | 22.9 µM (≈ 50 µg/mL) | 22.9 µM (≈ 50 µg/mL) | > 7.5 µM | > 7.5 µM | IC50 (A498): > 7.5 µM; MIC [11]: > 46 µM; MIC [12]: > 46 µM; MIC (Staphylococcus aureus [13]): > 46 µM; IC50 [14]: > 7.5 µM; MIC [15]: > 46 µM; IC50 [16]: > 7.5 µM; MIC (Pseudomonas aeruginosa): 22.9 µM (≈ 49.9 µg/mL)
CC(=O)NCC(=O)N[C@@H](Cc1ccccc1)C(=O)NC1(C(=O)NCC(=O)NC2(C(=O)N[C@@H](CCCNC(=N)N)C(=O)NC3(C(=O)NCC(=O)NC4(C(=O)N[C@@H](Cc5ccccc5)C(=O)NC5(C(=O)NCC(=O)NC6(C(=O)NCC(=O)N[C@@H](CCCNC(=N)N)C(=O)NC7(C(=O)N[C@@H](CCCNC(=N)N)C(=O)N[C@@H](CCCNC(=N)N)C(=O)N[C@@H](CCCNC(=N)N)C(=O)N[C@@H](CCCNC(=N)N)C(N)=O)CCCC7)CCCC6)CCCC5)CCCC4)CCCC3)CCCC2)CCCC1 (Ac-GF[Ac5c]G[Ac5c]R[Ac5c]G[Ac5c]F[Ac5c]G[Ac5c]GR[Ac5c]RRRR-NH2) | 42.4 µM (≈ 99.9 µg/mL) | 21.2 µM (≈ 49.9 µg/mL) | 3.7 µM | 5.31 µM (≈ 12.5 µg/mL) | > 7.5 µM | 7.1 µM | > 7.5 µM | 2.65 µM (≈ 6.24 µg/mL) | > 7.5 µM | 5.31 µM (≈ 12.5 µg/mL) | > 43 µM | 5.31 µM (≈ 12.5 µg/mL) | 5.31 µM (≈ 12.5 µg/mL) | > 7.5 µM | > 42.4 µM | > 7.5 µM | 5.31 µM (≈ 12.5 µg/mL) | 21.2 µM (≈ 49.9 µg/mL) | > 7.5 µM | > 7.5 µM | IC50 (A498): > 7.5 µM; MIC [11]: > 43 µM; MIC [12]: > 43 µM; MIC (Staphylococcus aureus [13]): 2.65 µM (≈ 6.24 µg/mL); IC50 [14]: > 7.5 µM; MIC [15]: 2.65 µM (≈ 6.24 µg/mL); IC50 [16]: > 7.5 µM; MIC (Pseudomonas aeruginosa): 2.65 µM (≈ 6.24 µg/mL)
CC(=O)NCC(=O)N[C@@H](Cc1ccccc1)C(=O)NC1(C(=O)NCC(=O)NC2(C(=O)NC(CCCN)C(=O)NC3(C(=O)NCC(=O)NC4(C(=O)N[C@@H](Cc5ccccc5)C(=O)NC5(C(=O)NCC(=O)NC6(C(=O)NCC(=O)NC(CCCN)C(=O)NC7(C(=O)NC(CCCN)C(=O)NC(CCCN)C(=O)NC(CCCN)C(=O)NC(CCCN)C(N)=O)CCCCC7)CCCCC6)CCCCC5)CCCCC4)CCCCC3)CCCCC2)CCCCC1 (stereo not given in full) (Ac-GF[Ac6c]G[Ac6c][ξOrn][Ac6c]G[Ac6c]F[Ac6c]G[Ac6c]G[ξOrn][Ac6c][ξOrn][ξOrn][ξOrn][ξOrn]-NH2) | 2.84 µM (≈ 6.25 µg/mL) | 11.4 µM (≈ 25 µg/mL) | 2.5 µM | 22.8 µM (≈ 50 µg/mL) | 5.9 µM | 1.7 µM | 6.5 µM | 2.84 µM (≈ 6.25 µg/mL) | 3.6 µM | 11.4 µM (≈ 25 µg/mL) | 45.5 µM (≈ 100 µg/mL) | 22.8 µM (≈ 50 µg/mL) | 5.67 µM (≈ 12.5 µg/mL) | 3.2 µM | 22.8 µM (≈ 50 µg/mL) | 4.6 µM | 2.84 µM (≈ 6.25 µg/mL) | 45.5 µM (≈ 100 µg/mL) | 6.2 µM | 7.5 µM | IC50 (A498): 4.7 µM; MIC [11]: > 45 µM; MIC [12]: > 45 µM; MIC (Staphylococcus aureus [13]): 5.67 µM (≈ 12.5 µg/mL); IC50 [14]: 3.1 µM; MIC [15]: 2.84 µM (≈ 6.25 µg/mL); IC50 [16]: 5.4 µM; MIC (Pseudomonas aeruginosa): 1.42 µM (≈ 3.12 µg/mL)
CC(=O)NCC(=O)N[C@@H](Cc1ccccc1)C(=O)NC1(C(=O)NCC(=O)NC2(C(=O)N[C@@H](CCCCN)C(=O)N[C@@H](CCCCN)C(=O)NC3(C(=O)NCC(=O)NC4(C(=O)N[C@@H](Cc5ccccc5)C(=O)NC5(C(=O)NCC(=O)NC6(C(=O)NCC(=O)N[C@@H](CCCCN)C(=O)N[C@@H](CCCCN)C(=O)NC7(C(=O)N[C@@H](CCCCN)C(=O)N[C@@H](CCCCN)C(=O)N[C@@H](CCCCN)C(=O)N[C@@H](CCCCN)C(N)=O)CCCCC7)CCCCC6)CCCCC5)CCCCC4)CCCCC3)CCCCC2)CCCCC1 (Ac-GF[Ac6c]G[Ac6c]KK[Ac6c]G[Ac6c]F[Ac6c]G[Ac6c]GKK[Ac6c]KKKK-NH2) | 2.46 µM (≈ 6.25 µg/mL) | 4.92 µM (≈ 12.5 µg/mL) | 2 µM | 39.4 µM (≈ 100 µg/mL) | > 7.5 µM | 1.9 µM | 7.2 µM | 2.46 µM (≈ 6.25 µg/mL) | 7.3 µM | 19.7 µM (≈ 50 µg/mL) | 39.4 µM (≈ 100 µg/mL) | 19.7 µM (≈ 50 µg/mL) | 2.46 µM (≈ 6.25 µg/mL) | 5.4 µM | > 39 µM | 6.2 µM | 0.61 µM (≈ 1.55 µg/mL) | 19.7 µM (≈ 50 µg/mL) | > 7.5 µM | > 7.5 µM | IC50 (A498): 3 µM; MIC [11]: > 39 µM; MIC [12]: > 39 µM; MIC (Staphylococcus aureus [13]): 19.7 µM (≈ 50 µg/mL); IC50 [14]: 2.6 µM; MIC [15]: 2.46 µM (≈ 6.25 µg/mL); IC50 [16]: > 7.5 µM; MIC (Pseudomonas aeruginosa): 2.46 µM (≈ 6.25 µg/mL)
CC(=O)N[C@@H](CCCCN)C(=O)N[C@@H](CCCCN)C(=O)N[C@@H](CCCCN)C(=O)N[C@@H](CCCCN)C(=O)NCC(=O)N[C@@H](Cc1ccccc1)C(=O)NC1(C(=O)NCC(=O)NC2(C(=O)N[C@@H](CCCCN)C(=O)NC3(C(=O)NCC(=O)NC4(C(=O)N[C@@H](Cc5ccccc5)C(=O)NC5(C(=O)NCC(=O)NC6(C(=O)NCC(=O)N[C@@H](CCCCN)C(=O)NC7(C(N)=O)CCCCC7)CCCCC6)CCCCC5)CCCCC4)CCCCC3)CCCCC2)CCCCC1 (Ac-KKKKGF[Ac6c]G[Ac6c]K[Ac6c]G[Ac6c]F[Ac6c]G[Ac6c]GK[Ac6c]-NH2) | 5.47 µM (≈ 12.5 µg/mL) | 21.9 µM (≈ 49.9 µg/mL) | 3.7 µM | 43.8 µM (≈ 99.9 µg/mL) | > 7.5 µM | 2.2 µM | 7.2 µM | 2.73 µM (≈ 6.24 µg/mL) | > 7.5 µM | 21.9 µM (≈ 49.9 µg/mL) | 21.9 µM (≈ 49.9 µg/mL) | 43.8 µM (≈ 99.9 µg/mL) | 1.37 µM (≈ 3.13 µg/mL) | 6.7 µM | 43.8 µM (≈ 99.9 µg/mL) | 7.3 µM | 2.73 µM (≈ 6.24 µg/mL) | 21.9 µM (≈ 49.9 µg/mL) | > 7.5 µM | > 7.5 µM | IC50 (A498): 4.2 µM; MIC [11]: > 44 µM; MIC [12]: > 44 µM; MIC (Staphylococcus aureus [13]): 10.9 µM (≈ 25 µg/mL); IC50 [14]: 6.4 µM; MIC [15]: 1.37 µM (≈ 3.13 µg/mL); IC50 [16]: > 7.5 µM; MIC (Pseudomonas aeruginosa): 1.37 µM (≈ 3.13 µg/mL)
